Tests used:
Format in all cases: in vivo
corn (Zea mays) = test: Test B pre-/postemergence plant response
Text: (§1) Seeds of plant species selected from blackgrass (Alopecurus myosuroides), downy bromegrass (Bromus tectorum), green foxtail (Setaria viridis), Italian ryegrass (Lolium multiflorum), wheat (Triticum aestivum), wild oat (Avena fatua), deadnettle (henbit deadnettle, Lamium amplexicaule), galium (catchweed bedstraw, Galium aparine), bermudagrass (Cynodon dactylon), Surinam grass (Brachiaria decumbens), cocklebur (Xanthium strumarium), corn (Zea mays), large crabgrass (Digitaria sanguinalis), woolly cupgrass (Eriochloa villosa), giant foxtail (Setaria faberii), goosegrass (Eleusine indica), johnsongrass (Sorghum halepense), kochia (Kochia scoparia), lambsquarters (Chenopodium album), morningglory (Ipomoea coccinea), nightshade (eastern black nightshade, Solanum ptycanthum), yellow nutsedge (Cyperus esculentus), pigweed (Amaranthus retroflexus), ragweed (common ragweed, Ambrosia elatior), Russian thistle (Salsola kali), soybean (Glycine max), sunflower (common oilseed sunflower, Helianthus annuus) and velvetleaf (Abutilon theophrasti) were planted into a blend of loam soil and sand and treated preemergence with test compounds formulated in a non-phytotoxic solvent mixture which included a surfactant.
(§2) At the same time, plants selected from these crop and weed species and also winter barley (Hordeum vulgare), canarygrass (Phalaris minor), chickweed (Stellaria media) and windgrass (Apera spica-venti) were planted in pots containing Redi-Earth® planting medium (Scotts Company, 14111 Scottslawn Road, Marysville, Ohio 43041) comprising spaghnum peat moss, vermiculite, wetting agent and starter nutrients and treated with postemergence applications of some of the test chemicals formulated in the same manner. Plants ranged in height from 2 to 18 cm (1- to 4-leaf stage) for postemergence treatments.
(§3) Treated plants and controls were maintained in a greenhouse for 13 to 15 days, after which time all treated plants were visually evaluated and compared to controls. Plant response ratings, summarized in Table B, are based on a scale of 0 to 100 where 0 is no effect and 100 is complete control. A dash (-) response means no test result.

[1] = test system: bermudagrass (Cynodon dactylon); test: Test B pre-/postemergence plant response
Text: as §1, §2, §3

[2] = test system: Surinam grass (Brachiaria decumbens); test: Test B pre-/postemergence plant response
Text: as §1, §2, §3

[3] = test system: ragweed (common ragweed, Ambrosia elatior); test: Test B pre-/postemergence plant response
Text: as §1, §2, §3

[4] = test system: yellow nutsedge (Cyperus esculentus); test: Test B pre-/postemergence plant response
Text: as §1, §2, §3

[5] = test system: velvetleaf (Abutilon theophrasti); test: Test B pre-/postemergence plant response
Text: as §1, §2, §3

soybean (Glycine max) = test: Test B pre-/postemergence plant response
Text: as §1, §2, §3

wild oat (Avena fatua) = test: Test B pre-/postemergence plant response
Text: as §1, §2, §3

[6] = test system: blackgrass (Alopecurus myosuroides); test: Test B pre-/postemergence plant response
Text: as §1, §2, §3

[7] = test system: woolly cupgrass (Eriochloa villosa); test: Test B pre-/postemergence plant response
Text: as §1, §2, §3

[8] = test system: lambsquarters (Chenopodium album); test: Test B pre-/postemergence plant response
Text: as §1, §2, §3

[9] = test system: johnsongrass (Sorghum halepense); test: Test B pre-/postemergence plant response
Text: as §1, §2, §3

[10] = test system: Italian ryegrass (Lolium multiflorum); test: Test B pre-/postemergence plant response
Text: as §1, §2, §3

[11] = test system: large crabgrass (Digitaria sanguinalis); test: Test B pre-/postemergence plant response
Text: as §1, §2, §3

[12] = test system: windgrass (Apera spica-venti); test: Test B postemergence plant response; conditions: Postemergence
How it was run: (§4)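 Plants grown in peat/vermiculite medium were sprayed postemergence at 2–18 cm height (1- to 4-leaf stage). After 13–15 days in the greenhouse, response was rated visually against untreated controls on a 0–100 scale (0 no effect, 100 complete control).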

[13] = test system: canarygrass (Phalaris minor); test: Test B postemergence plant response; conditions: Postemergence
How it was run: as §4

[14] = test system: winter barley (Hordeum vulgare); test: Test B postemergence plant response; conditions: Postemergence
How it was run: as §4

[15] = test system: chickweed (Stellaria media); test: Test B postemergence plant response; conditions: Postemergence
How it was run: as §4

[16] = 250 g ai/ha, Preemergence, 0 to 100 scale
[17] = Postemergence, 31 g ai/ha, scale 0 to 100 (0 no effect, 100 complete control)
[18] = Postemergence, 62 g ai/ha, scale 0 (no effect) to 100 (complete control), 13 to 15 days
[19] = Postemergence, 125 g ai/ha, visual rating after 13 to 15 days, scale 0 (no effect) to 100 (complete control)
[20] = Postemergence, 250 g ai/ha, scale 0 to 100
[21] = Preemergence, 31 g ai/ha, scale 0 to 100 (0 no effect, 100 complete control)
[22] = Preemergence, 62 g ai/ha, scale 0 to 100, 0 no effect, 100 complete control
[23] = Preemergence, 125 g ai/ha, 0 to 100 scale
[24] = 31 g ai/ha, scale 0 to 100 (0 no effect, 100 complete control)
[25] = 62 g ai/ha, scale 0 (no effect) to 100 (complete control), 13 to 15 days
[26] = 125 g ai/ha, visual rating after 13 to 15 days, scale 0 (no effect) to 100 (complete control)

## 5-[(2-hydroxy-6-oxo-1-cyclohexen-1-yl)carbonyl]-3-phenyl-2-(3-pyridinyl)-4(3H)-pyrimidone [Compound 113]
Corn (Zea mays); [16]
  Plant response rating, Corn: 0
Corn (Zea mays); [17]
  Plant response rating, Corn: 0
Corn (Zea mays); [18]
  Plant response rating, Corn: 0
Corn (Zea mays); [19]
  Plant response rating, Corn: 0
Corn (Zea mays); [20]
  Corn plant response rating: 10
Corn (Zea mays); [21]
  Plant response rating, Corn: 0
Corn (Zea mays); [22]
  Plant response rating, Corn: 0
Corn (Zea mays); [23]
  Corn plant response rating: 0
[1]; [16]
  Plant response rating, Bermudagrass: 98
[1]; [17]
  Plant response rating, Bermudagrass: 35
[1]; [18]
  Plant response rating, Bermudagrass: 45
[1]; Postemergence, 125 g ai/ha, scale 0 to 100 (0 no effect, 100 complete control), 13 to 15 days
  Plant response rating, Bermudagrass: 65
[1]; [20]
  Bermudagrass plant response rating: 70
[1]; [21]
  Plant response rating, Bermudagrass: 0
[1]; [22]
  Plant response rating, Bermudagrass: 0
[1]; [23]
  Bermudagrass plant response rating: 85
[2]; [16]
  Plant response rating, Surinam Grass: 10
[2]; [17]
  Plant response rating, Surinam Grass: 0
[2]; [18]
  Plant response rating, Surinam Grass: 10
[2]; [19]
  Plant response rating, Surinam Grass: 20
[2]; [20]
  Surinam Grass plant response rating: 25
[2]; [21]
  Plant response rating, Surinam Grass: 0
[2]; [22]
  Plant response rating, Surinam Grass: 0
[2]; [23]
  Surinam Grass plant response rating: 0
[3]; [16]
  Plant response rating, Ragweed: 90
[3]; [17]
  Plant response rating, Ragweed: 50
[3]; [18]
  Plant response rating, Ragweed: 65
[3]; [19]
  Plant response rating, Ragweed: 80
[3]; [20]
  Ragweed plant response rating: 85
[3]; [21]
  Plant response rating, Ragweed: 0
[3]; [22]
  Plant response rating, Ragweed: 0
[3]; [23]
  Ragweed plant response rating: 15
[4]; [16]
  Plant response rating, Nutsedge, Yellow: 55
[4]; [17]
  Plant response rating, Nutsedge, Yellow: 0
[4]; [18]
  Plant response rating, Nutsedge, Yellow: 0
[4]; [19]
  Plant response rating, Nutsedge, Yellow: 0
[4]; [20]
  Nutsedge, Yellow plant response rating: 0
[4]; [21]
  Plant response rating, Nutsedge, Yellow: 0
[4]; [22]
  Plant response rating, Nutsedge, Yellow: 10
[4]; [23]
  Nutsedge, Yellow plant response rating: 15
[5]; [16]
  Plant response rating, Velvetleaf: 100
[5]; [17]
  Plant response rating, Velvetleaf: 70
[5]; [18]
  Plant response rating, Velvetleaf: 80
[5]; [19]
  Plant response rating, Velvetleaf: 90
[5]; [20]
  Velvetleaf plant response rating: 98
[5]; [21]
  Plant response rating, Velvetleaf: 40
[5]; [22]
  Plant response rating, Velvetleaf: 85
[5]; [23]
  Velvetleaf plant response rating: 100
Soybean (Glycine max); [16]
  Plant response rating, Soybean: 30
Soybean (Glycine max); [17]
  Plant response rating, Soybean: 60
Soybean (Glycine max); [18]
  Plant response rating, Soybean: 65
Soybean (Glycine max); [19]
  Plant response rating, Soybean: 75
Soybean (Glycine max); [20]
  Soybean plant response rating: 85
Soybean (Glycine max); [21]
  Plant response rating, Soybean: 0
Soybean (Glycine max); [22]
  Plant response rating, Soybean: 0
Soybean (Glycine max); [23]
  Soybean plant response rating: 20
Wild oat (Avena fatua); [16]
  Plant response rating, Oat, Wild: 0
Wild oat (Avena fatua); [17]
  Plant response rating, Oat, Wild: 0
Wild oat (Avena fatua); [18]
  Plant response rating, Oat, Wild: 0
Wild oat (Avena fatua); [19]
  Plant response rating, Oat, Wild: 0
Wild oat (Avena fatua); [20]
  Oat, Wild plant response rating: 10
Wild oat (Avena fatua); [21]
  Plant response rating, Oat, Wild: 0
Wild oat (Avena fatua); [22]
  Plant response rating, Oat, Wild: 0
Wild oat (Avena fatua); [23]
  Oat, Wild plant response rating: 0
[6]; [16]
  Plant response rating, Blackgrass: 0
[6]; [17]
  Plant response rating, Blackgrass: 0
[6]; [18]
  Plant response rating, Blackgrass: 0
[6]; [19]
  Plant response rating, Blackgrass: 0
[6]; [20]
  Blackgrass plant response rating: 5
[6]; [21]
  Plant response rating, Blackgrass: 0
[6]; [22]
  Plant response rating, Blackgrass: 0
[6]; [23]
  Blackgrass plant response rating: 0
[7]; [16]
  Plant response rating, Cupgrass, Woolly: 45
[7]; [17]
  Plant response rating, Cupgrass, Woolly: 0
[7]; [18]
  Plant response rating, Cupgrass, Woolly: 50
[7]; [19]
  Plant response rating, Cupgrass, Woolly: 50
[7]; [20]
  Cupgrass, Woolly plant response rating: 65
[7]; [21]
  Plant response rating, Cupgrass, Woolly: 0
[7]; [22]
  Plant response rating, Cupgrass, Woolly: 0
[7]; [23]
  Cupgrass, Woolly plant response rating: 0
[8]; [16]
  Plant response rating, Lambsquarters: 100
[8]; [17]
  Plant response rating, Lambsquarters: 0
[8]; [18]
  Plant response rating, Lambsquarters: 65
[8]; [19]
  Plant response rating, Lambsquarters: 65
[8]; [20]
  Lambsquarters plant response rating: 75
[8]; [21]
  Plant response rating, Lambsquarters: 100
[8]; [22]
  Plant response rating, Lambsquarters: 100
[8]; [23]
  Lambsquarters plant response rating: 100
[9]; [16]
  Plant response rating, Johnsongrass: 0
[9]; [17]
  Plant response rating, Johnsongrass: 0
[9]; [18]
  Plant response rating, Johnsongrass: 0
[9]; [19]
  Plant response rating, Johnsongrass: 0
[9]; [20]
  Johnsongrass plant response rating: 0
[9]; [21]
  Plant response rating, Johnsongrass: 0
[9]; [22]
  Plant response rating, Johnsongrass: 0
[9]; [23]
  Johnsongrass plant response rating: 0
[10]; [16]
  Plant response rating, Ryegrass, Italian: 0
[10]; [17]
  Plant response rating, Ryegrass, Italian: 0
[10]; [18]
  Plant response rating, Ryegrass, Italian: 0
[10]; [19]
  Plant response rating, Ryegrass, Italian: 0
[10]; [20]
  Ryegrass, Italian plant response rating: 20
[10]; [21]
  Plant response rating, Ryegrass, Italian: 0
[10]; [22]
  Plant response rating, Ryegrass, Italian: 0
[10]; [23]
  Ryegrass, Italian plant response rating: 0
[11]; [16]
  Plant response rating, Crabgrass, Large: 95
[11]; [17]
  Plant response rating, Crabgrass, Large: 30
[11]; [18]
  Plant response rating, Crabgrass, Large: 45
[11]; [19]
  Plant response rating, Crabgrass, Large: 45
[11]; [20]
  Crabgrass, Large plant response rating: 60
[11]; [21]
  Plant response rating, Crabgrass, Large: 0
[11]; [22]
  Plant response rating, Crabgrass, Large: 0
[11]; [23]
  Crabgrass, Large plant response rating: 45
[12]; [24]
  Plant response rating, Windgrass: 5
[12]; [25]
  Plant response rating, Windgrass: 5
[12]; [26]
  Plant response rating, Windgrass: 5
[12]; 250 g ai/ha, scale 0 to 100
  Windgrass plant response rating: 5
[13]; [24]
  Plant response rating, Canarygrass: 0
[13]; [25]
  Plant response rating, Canarygrass: 0
[13]; [26]
  Plant response rating, Canarygrass: 0
[13]; 250 g ai/ha, scale 0 to 100
  Canarygrass plant response rating: 0
[14]; [24]
  Plant response rating, Barley: 0
[14]; [25]
  Plant response rating, Barley: 0
[14]; 125 g ai/ha, scale 0 to 100 (0 no effect, 100 complete control), 13 to 15 days
  Plant response rating, Barley: 0
[14]; 250 g ai/ha, scale 0 to 100
  Barley plant response rating: 0
[15]; [24]
  Plant response rating, Chickweed: 60
[15]; [25]
  Plant response rating, Chickweed: 80
[15]; [26]
  Plant response rating, Chickweed: 90
[15]; 250 g ai/ha, scale 0 to 100
  Chickweed plant response rating: 100

— US8952024B2, “Herbicidal pyrimidone derivatives” (E I du Pont de Nemours and Company, priority 2009, dated 2015)
